According to US20220323383A1, “SMALL-MOLECULAR ADJUVANTS AND IMPLEMENTATIONS THEREOF” (JAWAHARLAL NEHRU CENTRE FOR ADVANCED SCIENTIFIC RESEARCH, priority 2019, published 2022):
Counter-ions that a name gives are not always drawn.

Columns and labels:
Type in all cases: cell-based
[1] = tested on: human RBCs; assay: Haemolytic activity; settings: concentration at which 50% of human blood cells are lysed; 1 h at 37° C.
Experimental: Erythrocytes were isolated from freshly drawn, heparanized human blood and re-suspended to 5 vol % in PBS (pH 7.4). In a 96-well microtiter plate, 150 μl of erythrocyte suspension was added to 50 μl of serially diluted compound. Two controls were made, one without compound and other with 50 μl of 1 vol % solution of Triton X-100. The plate was incubated for 1 h at 37° C. The plate was then centrifuged at 3,500 rpm for 5 min, 100 μl of the supernatant from each well was transferred to a fresh 96-well microtiter plate, and A540 was measured. Percentage of hemolysis was determined as (A−A0)/(Atotal−A0)×100, where A is the absorbance of the test well, A0 the absorbance of the negative controls (without compound), and Atotal the absorbance of 100% hemolysis wells (with Triton X-100), all at 540 nm.
Toxicity studies of the compounds were done on freshly drawn human RBCs. Toxicity of the compounds were defined by their HC50 values (Table 2), i.e. the concentration of compound at which 50% of the blood cells are lysed.

[2] = tested on: A. baumannii R674; assay: Bactericidal time-kill kinetics; settings: combination of rifampicin and Compound 13 (4 μg/mL+2 μg/mL and 8 μg/mL+2 μg/mL)
Experimental: (§1) Briefly, A. baumannii R674 and P. aeruginosa R590 were grown in nutrient broth at 37° C. for 6 h. Combinations of Compound 13 and rifampicin (4 μg/mL+2 μg/mL and 8 μg/mL+2 μg/mL) and rifampicin alone (32 μg/mL) were inoculated with aliquots of A. baumannii R674 suspended in fresh media at ˜1.8×10^5 CFU/mL. Similarly, combination of […] and fusidic acid (8 μg/mL+1 μg/mL), Compound 15 (128 μg/mL) and fusidic acid (16 μg/mL) were inoculated with aliquots of P. aeruginosa R590 suspended in fresh media at ˜1.8×10^5 CFU/mL. After specified time intervals (0, 1, 2, 4, 6 and 12 h), 20 μL aliquots were serially diluted 10-fold in 0.9% saline, plated on sterile MacConkey agar plates and incubated at 37° C. overnight. The viable colonies were counted the next day and represented as logio (CFU/mL) (FIG. 1). Combination of rifampicin and Compound 13 could completely kill the bacteria in 2 h and combination of fusidic acid and Compound 14 could kill bacteria in 12 h.

[3] = tested on: P. aeruginosa R590; assay: Bactericidal time-kill kinetics; settings: combination with fusidic acid (8 μg/mL+1 μg/mL)
Experimental: as §1

SMILES | HC50 [1] | Time to completely kill the bacteria [2] | Time to kill bacteria [3]
NCCCC[C@H](N)C(=O)NCCCCCCN(CCCCCCNC(=O)[C@@H](N)CCCCN)C(=O)Cc1cccc2ccccc12 [Compound 13, N,N-bis-[(6-(^LLys)amido)hexyl] naphthyl ethanamide tetrakistrifluoroacetate] | >1024 µg/mL | 2 h | –
NCCCC[C@H](N)C(=O)NCCCCCCN(CCCCCCNC(=O)[C@@H](N)CCCCN)C(=O)CC(c1ccccc1)c1ccccc1 [Compound 14, N,N-bis-[(6-(^LLys)amido)hexyl] 3,3-diphenyl propanamide tetrakis trifluoroacetate] | >1024 µg/mL | – | 12 h
